Measurements: patent publication US7585871B2, “Phenanthridine carbonyl phenols” (Wyeth, priority 2004, dated 2009)

Columns and labels:
human ERα [1] = biological target: T1, human ERα (Homo sapiens, UniProt P03372); assay: IL-6 luciferase (IL6-luc) assay in ERα infected HAECT-1 cells; type: cell-based; conditions: for IC50: ERα infected HAECT-1 cells, IL-1β, Ad5-IL-6(1250 bp).Luc virus, 15-20 h; for IL6-luc (% E2): efficacy relative to E2, value in parentheses after the IC50
T1 construct: expressed in transfected cells; host or cells: HAECT-1 cells (immortalized human aortic endothelial cells) infected with Ad5-wt-hERα adenovirus
T1 sequence (P03372 1-595): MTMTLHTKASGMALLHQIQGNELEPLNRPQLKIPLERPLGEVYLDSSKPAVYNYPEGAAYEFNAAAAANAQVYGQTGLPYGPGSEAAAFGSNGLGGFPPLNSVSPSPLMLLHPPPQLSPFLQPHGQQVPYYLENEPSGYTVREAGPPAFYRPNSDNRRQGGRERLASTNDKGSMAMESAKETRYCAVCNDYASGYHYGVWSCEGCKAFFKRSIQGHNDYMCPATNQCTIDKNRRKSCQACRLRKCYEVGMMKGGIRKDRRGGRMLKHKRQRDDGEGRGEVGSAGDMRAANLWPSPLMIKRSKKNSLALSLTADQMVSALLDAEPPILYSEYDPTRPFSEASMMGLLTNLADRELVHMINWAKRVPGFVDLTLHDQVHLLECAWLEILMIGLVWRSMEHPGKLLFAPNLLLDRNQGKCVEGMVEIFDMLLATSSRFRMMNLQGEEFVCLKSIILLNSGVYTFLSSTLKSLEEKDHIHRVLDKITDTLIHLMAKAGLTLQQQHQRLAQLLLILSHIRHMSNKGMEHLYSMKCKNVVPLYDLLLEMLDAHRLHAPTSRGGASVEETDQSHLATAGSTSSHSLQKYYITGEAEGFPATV
Method: (§1) After four hours, cells were washed with EBM-BSA and incubated overnight in the same medium. Following overnight incubation, cells were washed with EBM-BSA and infected for 2 hours with 6 ml of a 1:10 dilution of Ad5-3x(NFκB).Luc virus (Adenovirus luciferase expression vector driven by 3 repeats of the MHC NFκb site 5′ to the thymidine kinase promoter) in EBM-BSA. After two hours, cells were washed and incubated at 34° C. for 1 hour. […] Control (no ER infection) cells were processed as above without Ad5-wt-hERα virus infection.
(§2) ERα infected HAECT-1 cells or control cells were thawed, diluted 42× in warm EBM-BSA, plated into 96-well plates at 0.1 ml/well and incubated for 4 h at 34° C. […] After 15-20 h, cells are lysed with 50 ul of Promega Cell Culture Lysis reagent for ˜5 min at room temp on shaker. After lysing, 15 ul of lysate is transferred to luminometer plates for luciferase determination. […] Creatine kinase was determined from the rate of increase in A340 following addition of 100 uL of CK assay reagent (Sigma, cat. No 47-10) to the remainder of the cell lysate.
(§3) For IC50 and EC50 calculations, mean IL-6, luciferase or CK values versus log10 of the compound concentration were fitted to a four parameter logistic equation. The IC50/EC50 value, ‘Hill slope’, upper and lower limits of the curve were iteratively estimated.

human ERα [2] = biological target: T1, human ERα; assay: Creatine kinase (CK) assay in ERα infected HAECT-1 cells; type: cell-based; conditions: for EC50: creatine kinase in lysate of ERα infected HAECT-1 cells; for CK (% E2): efficacy relative to E2, value in parentheses after the EC50
Method: as §1, §2, §3

Row | SMILES | IC50 (human ERα [1]) [nM] | IL6-luc (% E2) (human ERα [1]) [%] | EC50 (human ERα [2]) [nM] | CK (% E2) (human ERα [2]) [%] | melting point [°C] | CK (% E2) at a single concentration (human ERα [2]; @ 1 μM) [% @ 1 μM]
1 | CC1c2ccccc2-c2ccc(Cl)cc2N1C(=O)c1ccc(O)cc1 (racemic) [Example 27, 4-[(3-chloro-6-methylphenanthridin-5(6H)-yl)carbonyl]phenol] | – | – | – | – | 165 to 165.9 | –
2 | C[C@H]1c2ccccc2-c2ccc(F)cc2N1C(=O)c1ccc(O)cc1 (single isomer, unassigned) [Example 38] | – | – | – | – | 236.6 to 237.8 | –
3 | CC[C@H]1c2cc(F)ccc2-c2ccccc2N1C(=O)c1ccc(O)cc1 [Example 19, 4-{[(6S)-6-ethyl-8-fluorophenanthridin-5(6H)-yl]carbonyl}phenol] | 85 | 88 | – | – | 103 to 104 | –
4 | C[C@@H]1c2ccccc2-c2ccc(F)cc2N1C(=O)c1ccc(O)cc1 (single isomer, unassigned) [Example 37] | 6 | 114 | 28 | 20 | 235.7 to 236.8 | –
5 | C[C@@H]1c2cc(F)ccc2-c2ccccc2N1C(=O)c1cccc(O)c1 [Example 4, 3-{[(6R)-8-fluoro-6-methylphenanthridin-5(6H)-yl]carbonyl}phenol] | 47 | 102 | – | – | 162 | –
6 | C[C@H]1c2ccccc2-c2ccc(Cl)cc2N1C(=O)c1ccc(O)cc1 [Example 29, 4-{[(6S)-3-chloro-6-methylphenanthridin-5(6H)-yl]carbonyl}phenol] | 1000 | 75 | – | – | 273.7 to 276 | –
7 | CC1c2ccccc2-c2ccc(F)cc2N1C(=O)c1ccc(O)cc1 (racemic) [Example 36, 4-[(3-fluoro-6-methylphenanthridin-5(6H)-yl)carbonyl]phenol] | – | – | – | – | 134.5 to 135 | –
8 | CC1c2ccccc2-c2ccc(Cl)cc2N1C(=O)c1cccc(O)c1 (racemic) [Example 24, 3-[(3-chloro-6-methylphenanthridin-5(6H)-yl)carbonyl]phenol] | – | – | – | – | 176.2 to 177.9 | –
9 | C[C@H]1c2ccccc2-c2ccc(F)cc2N1C(=O)c1ccc(O)cc1O (single isomer, unassigned) [Example 41] | 272 | 88 | – | – | 182 to 184 | –
10 | C[C@H]1c2cc(F)ccc2-c2ccc(F)cc2N1C(=O)c1ccc(O)cc1 (single isomer, unassigned) [Example 44] | 130 | 132 | – | – | 135 to 138 | –
11 | CC[C@@H]1c2cc(F)ccc2-c2ccccc2N1C(=O)c1ccc(O)cc1 [Example 20, 4-{[(6R)-6-ethyl-8-fluorophenanthridin-5(6H)-yl]carbonyl}phenol] | 6 | 95 | – | – | 105 to 106 | –
12 | C[C@@H]1c2cc(F)ccc2-c2ccccc2N1C(=O)c1ccc(Cl)c(O)c1 [Example 11, 2-chloro-5-{[(6R)-8-fluoro-6-methylphenanthridin-5(6H)-yl]carbonyl}phenol] | 271 | 107 | 307 | −29 | – | –
13 | CC1c2ccccc2-c2ccc(F)cc2N1C(=O)c1cccc(O)c1 (racemic) [Example 33, 3-[(3-fluoro-6-methylphenanthridin-5(6H)-yl)carbonyl]phenol] | – | – | – | – | 163.9 to 165 | –
14 | CC[C@@H]1c2cc(F)ccc2-c2ccccc2N1C(=O)c1cccc(O)c1 [Example 21, 3-{[(6R)-6-ethyl-8-fluorophenanthridin-5(6H)-yl]carbonyl}phenol] | 40 | 134 | – | – | 101 to 102 | 50
15 | C[C@@H]1c2ccccc2-c2ccc(Cl)cc2N1C(=O)c1cccc(O)c1 [Example 25, 3-{[(6R)-3-chloro-6-methylphenanthridin-5(6H)-yl]carbonyl}phenol] | 9 | 103 | 141 | 26 | – | –

The remaining lines, values ahead:

Row | IC50 (human ERα [1]) [nM] | IL6-luc (% E2) (human ERα [1]) [%] | EC50 (human ERα [2]) [nM] | CK (% E2) (human ERα [2]) [%] | melting point [°C] | CK (% E2) at a single concentration (human ERα [2]; @ 1 μM) [% @ 1 μM] | SMILES
16 | 1 | 107 | 8 | 20 | 184 to 187 | – | C[C@@H]1c2ccccc2-c2ccc(F)cc2N1C(=O)c1ccc(O)cc1O (single isomer, unassigned) [Example 40]
17 | 1 | 107 | – | – | 109 to 111 | – | CCC1c2cc(F)ccc2-c2ccccc2N1C(=O)c1ccc(O)cc1F (racemic) [Example 23, 4-[(6-ethyl-8-fluorophenanthridin-5(6H)-yl)carbonyl]-3-fluorophenol]
18 | 4.5 | 95 | 90 | 37 | 193 to 195 | – | CC1c2cc(F)ccc2-c2ccc(F)cc2N1C(=O)c1ccc(O)cc1 (racemic) [Example 42, 4-[(3,8-difluoro-6-methylphenanthridin-5(6H)-yl)carbonyl]phenol]
19 | 6 | 120 | 69 | 32 | 273.5 to 276 | – | C[C@@H]1c2ccccc2-c2ccc(Cl)cc2N1C(=O)c1ccc(O)cc1 [Example 28, 4-{[(6R)-3-chloro-6-methylphenanthridin-5(6H)-yl]carbonyl}phenol]
20 | 1.5 | 147 | – | – | 138 to 140 | – | C[C@@H]1c2cc(F)ccc2-c2ccc(F)cc2N1C(=O)c1ccc(O)cc1 (single isomer, unassigned) [Example 43]
21 | 2 | 106 | 3 | 38 | 98 to 100 | – | CC[C@@H]1c2cc(F)ccc2-c2ccccc2N1C(=O)c1ccc(O)cc1O [Example 22, 4-{[(6R)-6-ethyl-8-fluorophenanthridin-5(6H)-yl]carbonyl}benzene-1,3-diol]
